Assay results taken from ChEMBL document CHEMBL4373724, “An overview of recent progress in siderophore-antibiotic conjugates” (2019).
Converted amounts (≈) assume the structure as drawn.

Experiments:
Format in all cases: functional
Pseudomonas aeruginosa [1] = experiment: Antimicrobial activity against Pseudomonas aeruginosa under iron-sufficient condition by CLSI protocol based broth microdilution method
Klebsiella pneumoniae [2] = experiment: Antimicrobial activity against Klebsiella pneumoniae X68 under iron-sufficient condition by CLSI protocol based broth microdilution method
Klebsiella pneumoniae [3] = experiment: Antimicrobial activity against Klebsiella pneumoniae ATCC 8303 under iron-deficient condition by CLSI protocol based broth microdilution method
Escherichia coli [4] = experiment: Antimicrobial activity against Escherichia coli ATCC 25922 under iron-sufficient condition by CLSI protocol based broth microdilution method
Pseudomonas aeruginosa [5] = experiment: Antimicrobial activity against Pseudomonas aeruginosa KW799 under iron-sufficient condition by CLSI protocol based broth microdilution method
Pseudomonas aeruginosa [6] = experiment: Antimicrobial activity against Pseudomonas aeruginosa PAO1 under iron-sufficient condition by CLSI protocol based broth microdilution method
Escherichia coli [7] = experiment: Antimicrobial activity against Escherichia coli ATCC 25922 under iron-deficient condition by CLSI protocol based broth microdilution method
Klebsiella pneumoniae [8] = experiment: Antimicrobial activity against Klebsiella pneumoniae X68 under iron-deficient condition by CLSI protocol based broth microdilution method
Pseudomonas aeruginosa [9] = experiment: Antimicrobial activity against Pseudomonas aeruginosa KW799 under iron-deficient condition by CLSI protocol based broth microdilution method
Pseudomonas aeruginosa [10] = experiment: Antimicrobial activity against Pseudomonas aeruginosa under iron-deficient condition by CLSI protocol based broth microdilution method
Pseudomonas aeruginosa [11] = experiment: Antimicrobial activity against Pseudomonas aeruginosa PA6 under iron-sufficient condition by CLSI protocol based broth microdilution method
Pseudomonas aeruginosa [12] = experiment: Antimicrobial activity against Pseudomonas aeruginosa PA4 under iron-deficient condition by CLSI protocol based broth microdilution method
Pseudomonas aeruginosa [13] = experiment: Antimicrobial activity against Pseudomonas aeruginosa PAO1 under iron-deficient condition by CLSI protocol based broth microdilution method
Pseudomonas aeruginosa [14] = experiment: Antimicrobial activity against Pseudomonas aeruginosa PA4 under iron-sufficient condition by CLSI protocol based broth microdilution method
Pseudomonas aeruginosa [15] = experiment: Antimicrobial activity against Pseudomonas aeruginosa PA6 under iron-deficient condition by CLSI protocol based broth microdilution method
Pseudomonas aeruginosa [16] = experiment: Antimicrobial activity against Pseudomonas aeruginosa 61 under iron-sufficient condition by CLSI protocol based broth microdilution method
Klebsiella pneumoniae [17] = experiment: Antimicrobial activity against Klebsiella pneumoniae ATCC 8303 under iron-sufficient condition by CLSI protocol based broth microdilution method
Pseudomonas aeruginosa [18] = experiment: Antimicrobial activity against Pseudomonas aeruginosa 61 under iron-deficient condition by CLSI protocol based broth microdilution method
Staphylococcus aureus [19] = experiment: Antimicrobial activity against Staphylococcus aureus SG 511 after 18 hrs by CLSI protocol based broth microdilution method; settings: SG 511, 18 h
Klebsiella aerogenes = experiment: Antimicrobial activity against Enterobacter aerogenes ATCC 35029 after 18 hrs by CLSI protocol based broth microdilution method; settings: ATCC 35029, 18 h
Escherichia coli [20] = experiment: Antimicrobial activity against Escherichia coli ATCC 25922 after 18 hrs by CLSI protocol based broth microdilution method; settings: ATCC 25922, 18 h
Acinetobacter baumannii = experiment: Antimicrobial activity against Acinetobacter baumannii ATCC 17961 after 18 hrs by CLSI protocol based broth microdilution method; settings: ATCC 17961, 18 h
Enterococcus faecium = experiment: Antimicrobial activity against Enterococcus faecium NCTC after 18 hrs by CLSI protocol based broth microdilution method
Pseudomonas aeruginosa [21] = experiment: Antimicrobial activity against Pseudomonas aeruginosa ATCC 27853 after 18 hrs by CLSI protocol based broth microdilution method; settings: ATCC 27853, 18 h
Klebsiella pneumoniae [22] = experiment: Antimicrobial activity against Klebsiella pneumoniae 700603 after 18 hrs by CLSI protocol based broth microdilution method; settings: Klebsiella pneumoniae, 700603, 18 h
[23] = test system: Mycobacterium tuberculosis; experiment: Antitubercular activity against Mycobacterium tuberculosis H37Rv
[24] = test system: Mycolicibacterium smegmatis; experiment: Antitubercular activity against Mycobacterium smegmatis
Pseudomonas aeruginosa [25] = experiment: Antimicrobial activity against Pseudomonas aeruginosa X621 under iron-sufficient condition by broth microdilution method
Pseudomonas aeruginosa [26] = experiment: Antimicrobial activity against Pseudomonas aeruginosa X620 under iron-deficient condition by broth microdilution method
Staphylococcus aureus [27] = experiment: Antimicrobial activity against Staphylococcus aureus X1.1 under iron-sufficient condition by broth microdilution method
Escherichia coli [28] = experiment: Antimicrobial activity against Escherichia coli EC14 under iron-sufficient condition by broth microdilution method
Escherichia coli [29] = experiment: Antimicrobial activity against Escherichia coli X580 under iron-deficient condition by broth microdilution method
Micrococcus luteus [30] = experiment: Antimicrobial activity against Micrococcus luteus under iron-deficient condition by broth microdilution method
Escherichia coli [31] = experiment: Antimicrobial activity against Escherichia coli X580 under iron-sufficient condition by broth microdilution method
Escherichia coli [32] = experiment: Antimicrobial activity against Escherichia coli EC14 under iron-deficient condition by broth microdilution method
Staphylococcus aureus [33] = experiment: Antimicrobial activity against Staphylococcus aureus X1.1 under iron-deficient condition by broth microdilution method
Pseudomonas aeruginosa [34] = experiment: Antimicrobial activity against Pseudomonas aeruginosa X620 under iron-sufficient condition by broth microdilution method
Micrococcus luteus [35] = experiment: Antimicrobial activity against Micrococcus luteus under iron-sufficient condition by broth microdilution method
Pseudomonas aeruginosa [36] = experiment: Antimicrobial activity against Pseudomonas aeruginosa X621 under iron-deficient condition by broth microdilution method

Compound | MIC90 (Pseudomonas aeruginosa [1]) [µM] | MIC90 (Klebsiella pneumoniae [2]) [µM] | MIC90 (Klebsiella pneumoniae [3]) [µM] | MIC90 (Escherichia coli [4]) [µM] | MIC90 (Pseudomonas aeruginosa [5]) [µM] | MIC90 (Pseudomonas aeruginosa [6]) [µM] | MIC90 (Escherichia coli [7]) [µM] | MIC90 (Klebsiella pneumoniae [8]) [µM] | MIC90 (Pseudomonas aeruginosa [9]) [µM] | MIC90 (Pseudomonas aeruginosa [10]) [µM] | MIC90 (Pseudomonas aeruginosa [11]) [µM] | MIC90 (Pseudomonas aeruginosa [12]) [µM] | MIC90 (Pseudomonas aeruginosa [13]) [µM] | MIC90 (Pseudomonas aeruginosa [14]) [µM] | MIC90 (Pseudomonas aeruginosa [15]) [µM] | MIC90 (Pseudomonas aeruginosa [16]) [µM] | MIC90 (Klebsiella pneumoniae [17]) [µM] | MIC90 (Pseudomonas aeruginosa [18]) [µM] | further results
CC1(C)S[C@@H]2[C@H](NC(=O)[C@H](NC(=O)CCC(=O)NC(CCCNC(=O)c3cccc(O)c3O)(CCCNC(=O)c3cccc(O)c3O)CCCNC(=O)c3cccc(O)c3O)c3ccccc3)C(=O)N2[C@H]1C(=O)O | 33 (≈ 34.4 µg/mL) | > 200 | > 100 | 150 (≈ 156 µg/mL) | 12.5 to 33 (≈ 13 to 34.4 µg/mL) | 50 (≈ 52.1 µg/mL) | 1.56 (≈ 1.63 µg/mL) | > 100 | 0.05 to 0.067 (≈ 0.0521 to 0.0698 µg/mL) | 0.05 (≈ 0.0521 µg/mL) | > 200 | 0.39 (≈ 0.406 µg/mL) | 0.39 (≈ 0.406 µg/mL) | 25 (≈ 26.1 µg/mL) | > 200 | 12.5 (≈ 13 µg/mL) | > 200 | 0.067 (≈ 0.0698 µg/mL) | –
O=C(CCC(=O)N(O)CCCCCO)NCCCCCN(O)C(=O)CCC(=O)NCCCCCN(O)C(=O)CCC(=O)N1CCN(c2cc3c(cc2F)c(=O)c(C(=O)O)cn3C2CC2)CC1 | – | – | – | – | – | – | – | – | – | – | – | – | – | – | – | – | – | – | MIC (Staphylococcus aureus [19]): 1 µM (≈ 0.933 µg/mL); MIC (Klebsiella aerogenes): 64 µM (≈ 59.7 µg/mL); MIC (Escherichia coli [20]): > 128 µM; MIC (Acinetobacter baumannii): ≥ 128 µM; MIC (Enterococcus faecium): 64 µM (≈ 59.7 µg/mL); MIC (Pseudomonas aeruginosa [21]): > 128 µM; MIC (Klebsiella pneumoniae [22]): > 128 µM
CC1(C)S[C@@H]2[C@H](NC(=O)[C@H](NC(=O)CCC(=O)NC(CCCNC(=O)c3cccc(O)c3O)(CCCNC(=O)c3cccc(O)c3O)CCCNC(=O)c3cccc(O)c3O)c3ccc(O)cc3)C(=O)N2[C@H]1C(=O)O | 25 (≈ 26.5 µg/mL) | > 200 | > 100 | 100 (≈ 106 µg/mL) | 12.5 to 25 (≈ 13.2 to 26.5 µg/mL) | 50 (≈ 52.9 µg/mL) | 6.25 (≈ 6.61 µg/mL) | > 100 | 0.05 to 0.083 (≈ 0.0529 to 0.0878 µg/mL) | 0.05 (≈ 0.0529 µg/mL) | > 200 | 0.21 (≈ 0.222 µg/mL) | 0.39 (≈ 0.413 µg/mL) | 25 (≈ 26.5 µg/mL) | > 200 | 12.5 (≈ 13.2 µg/mL) | > 200 | 0.083 (≈ 0.0878 µg/mL) | –
CCCCCCCCCCCCCCCCC(=O)N(O)CCCC[C@H](NC(=O)[C@@H]1COC(c2ccccc2O)=N1)C(=O)NC[C@H](NC(=O)CCCO[C@H]1O[C@@H]2O[C@@]3(C)CC[C@H]4[C@H](C)CC[C@@H]([C@H]1C)[C@@]24OO3)C(=O)N[C@H]1CCCCN(O)C1=O | – | – | – | – | – | – | – | – | – | – | – | – | – | – | – | – | – | – | MIC [23]: 0.39 µg/mL (≈ 0.334 µM); MIC [24]: > 5 µg/mL
CC1(C)S[C@@H]2[C@H](NC(=O)[C@H](N)c3ccc(O)cc3)C(=O)N2[C@H]1C(=O)O [AMOXICILLIN] | > 200 | 100 (≈ 36.5 µg/mL) | > 100 | 4.17 (≈ 1.52 µg/mL) | 0.46 to 200 (≈ 0.168 to 73.1 µg/mL) | > 200 | 4.17 (≈ 1.52 µg/mL) | > 100 | 0.39 to 200 (≈ 0.143 to 73.1 µg/mL) | > 200 | > 200 | > 100 | > 100 | > 200 | > 200 | 0.46 (≈ 0.168 µg/mL) | 100 (≈ 36.5 µg/mL) | 0.39 (≈ 0.143 µg/mL) | –
CC1(C)S[C@@H]2[C@H](NC(=O)[C@H](N)c3ccccc3)C(=O)N2[C@H]1C(=O)O [AMPICILLIN] | > 200 | > 200 | > 100 | 16.7 (≈ 5.84 µg/mL) | 0.52 to 200 (≈ 0.182 to 69.9 µg/mL) | > 200 | 12.5 (≈ 4.37 µg/mL) | > 100 | 0.78 to 200 (≈ 0.273 to 69.9 µg/mL) | > 200 | > 200 | > 100 | > 100 | > 200 | > 200 | 0.52 (≈ 0.182 µg/mL) | > 200 | 0.78 (≈ 0.273 µg/mL) | –
N[C@@H](C(=O)N[C@@H]1C(=O)N2C(C(=O)O)=C(Cl)CC[C@H]12)c1ccccc1 [LORACARBEF ANHYDROUS] | – | – | – | – | – | – | – | – | – | – | – | – | – | – | – | – | – | – | MIC (Staphylococcus aureus [19]): 1 µM (≈ 0.35 µg/mL); MIC (Klebsiella aerogenes): > 128 µM; MIC (Escherichia coli [20]): 2 µM (≈ 0.7 µg/mL); MIC (Acinetobacter baumannii): > 128 µM; MIC (Enterococcus faecium): 32 µM (≈ 11.2 µg/mL); MIC (Pseudomonas aeruginosa [21]): > 128 µM; MIC (Klebsiella pneumoniae [22]): 128 µM (≈ 44.8 µg/mL)
CN[C@H](CC(C)C)C(=O)N[C@H]1C(=O)N[C@@H](CC(N)=O)C(=O)N[C@H]2C(=O)N[C@H]3C(=O)N[C@H](C(=O)N[C@H](C(=O)O)c4cc(O)cc(O)c4-c4cc3ccc4O)[C@H](O)c3ccc(c(Cl)c3)Oc3cc2cc(c3O[C@@H]2O[C@H](CO)[C@@H](O)[C@H](O)[C@H]2O[C@H]2C[C@](C)(N)[C@H](O)[C@H](C)O2)Oc2ccc(cc2Cl)[C@H]1O [VANCOMYCIN] | – | – | – | – | – | – | – | – | – | – | – | – | – | – | – | – | – | – | MIC (Pseudomonas aeruginosa [25]): > 128 µM; MIC (Pseudomonas aeruginosa [26]): > 128 µM; MIC (Staphylococcus aureus [27]): 1 to 4 µM (≈ 1.45 to 5.8 µg/mL); MIC (Escherichia coli [28]): > 128 µM; MIC (Escherichia coli [29]): 32 µM (≈ 46.4 µg/mL); MIC (Micrococcus luteus [30]): 1 to 4 µM (≈ 1.45 to 5.8 µg/mL); MIC (Escherichia coli [31]): 32 to 64 µM (≈ 46.4 to 92.8 µg/mL); MIC (Escherichia coli [32]): > 128 µM; MIC (Staphylococcus aureus [33]): 0.5 to 4 µM (≈ 0.725 to 5.8 µg/mL); MIC (Pseudomonas aeruginosa [34]): > 128 µM; MIC (Micrococcus luteus [35]): 2 to 4 µM (≈ 2.9 to 5.8 µg/mL); MIC (Pseudomonas aeruginosa [36]): > 128 µM
